The values that follow come from article PMC6128908, “Potent PDZ-Domain PICK1 Inhibitors that Modulate Amyloid Beta-Mediated Synaptic Dysfunction” (Scientific Reports, 2018).

One series has as its target PICK1 (Homo sapiens, UniProt Q9NRD5). As to the kind of experiment: PICK1 competition (displacement) assay with tracer BIO424.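 As to all read-outs here: in vitro displacement assay with baculovirus-expressed, truncated dimeric PICK1 missing its final 59 residues.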 To be noted: for fold more potent than the unsubstituted quinoline: relative to 1u.
The nature of a further series: PK properties in rats. Format: in vivo. As for the experimental part:
We next investigated the PK properties of compound 1z in rats to explore if it represented an appropriate in vivo tool compound. […] Several other compounds within this series were tested for brain penetration and were likewise unable to cross the blood brain barrier.

The subject of series [1] is surface GluA2 in cultured hippocampal neurons. Description: Surface GluA2 immunostaining in cultured hippocampal neurons. In kind it is cell-based, mouse. As for the experimental part:
Experiments were conducted in accordance with and received approval from the Institutional Animal Care and Use Committees at Biogen Inc. The experiments were carried out in accordance with guidelines laid down by the NIH regarding the care and use of animals for experimental procedures. Primary hippocampal cultures were prepared from embryonic day 18 rodent brains as described previously. Cells were plated on coverslips coated with poly-D-lysine (30 µg/mL) and laminin (2 µg/mL) at a density of 70, 000 cells per well in 12-well plates. […] Embryonic neuronal cultures were prepared from a minimum of three independent pregnant mice on separate days in all of the studies described, and at least 13 neurons were analyzed for each experimental group. […]
Confocal images of immunostained neurons were obtained using a confocal microscope objective (LSM 710, Zeiss) with sequential acquisition settings at a resolution of 1024 × 1024 pixels. […] All analysis and quantifications were carried out using MetaMorph image analysis software (Universal Imaging Corporation). Dendrites from experimental groups were randomly selected and carefully traced, and the average intensity of fluorescence staining was determined for the traced regions. Intensity measurements are expressed in arbitrary units of fluorescence per square area. Acquisition and quantification of images was blinded. […]

Series [2] has as its system AMPA receptor-dependent calcium influx in hippocampal neurons. Description: Calcium mobilization assay (FLIPR), Aβ42-treated neurons. In kind it is cell-based, mouse. To be noted: neurons treated with Aβ42 for 24 hours, 40 μM s-AMPA stimulation. A general note: A change in cytosolic calcium serves as a functional read-out for many receptors and channels.
Experimental: Synthetic Aβ42 hexafluoroisopropanol peptide was prepared to the stock concentration of 200 μM by adding 10 μL dimethylsulfoxide to 100 μg of Aβ42 hexafluoroisopropanol pellet and incubating for 30 min at room temperature with occasional mixing. […] The solution was kept at room temperature for 2 h and then used for experiments.
Mouse hippocampal neurons from wild type E16–18 animals were isolated and cultured for 13 days in vitro in Neurobasal media with B27 Supplement, Glutamax, and penicillin/streptomycin (Invitrogen). Neuron cultures were then treated with Aβ in the absence or presence of PICK1 inhibitorsfor 24 hours. Calcium influx was measured using the FLIPR Calcium 4 Assay (Molecular Devices). The cells were loaded with dye for 1 hour at 37 °C and then stimulated with 40 μM s-AMPA (Sigma). Fluorescent recordings were taken using the FLIPR Tetra (Molecular Devices). Baseline measurements before AMPA stimulation were recorded and fluorescent intensity measurements were taken for roughly 3 minutes during and after stimulation. Calcium influx was calculated as the area under the curve and plotted using PRISM GraphPad software.
Another series concerns the target T1, PSD95 PDZ 1-2 (Homo sapiens, UniProt P78352).
T1 construct: domains 1–2 in tandem; aminoacids 61–249; 8XHis-TEV; made in house; host or cells: E. coli
To be noted: cited from earlier work.

Series [3] concerns GRIP. To be noted: cited from earlier work.
The target in a further series is T2, Shank3 PDZ (Homo sapiens, UniProt Q9BYB0).
T2 construct: Human Shank3 PDZ domain (residues 663–757); made in house; host or cells: E. coli
T2 sequence (Q9BYB0 646-740 limits assumed): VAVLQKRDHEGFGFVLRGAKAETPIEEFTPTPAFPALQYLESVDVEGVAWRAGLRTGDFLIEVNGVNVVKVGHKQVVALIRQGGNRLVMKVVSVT
As to the kind of experiment: Fluorescence polarization selectivity assay, FITC-labeled GKAP peptide. Format: binding. The settings on record: Supplemental Fig. 3D.

For series [4], the system named is GRIP. As to the kind of experiment: PDZ selectivity counter-screen against GRIP. Format: binding. To be noted: data not shown. An excerpt:
Having addressed the potency issue for this tool, we then looked into how selective this compound series was for PICK1 over other closely related PDZ domains. Since the ligand GluA2 recognizes both PICK1 and GRIP we were unsure of whether we could get a selective compound. GRIP (6 PDZ domain-containing protein) is the most closely related PDZ domain to PICK1. PSD95 ([…]) and Shank (a single PDZ domain scaffolding molecule), are also important to counter-screen as they are also located in neurons and could be considered a liability if they were inhibited (Supplemental Fig. 3). […] The selectivity observed for compound 1o was also observed for compound 1z[20].
On the technique in general: The purpose of a counterscreen is to sort out artefacts and off-target activity.

The mark [5] stands for this setting: rat, in vivo, 5 mg/kg, suspension (CMC/Tween).

Structures are written as SMILES. Several values for one entry are separate records, joined by “and”; a condition that tells them apart may be missing. Equal entries are not always repeated. Where two headings read alike, the source gives them in different places.

Chain of PICK1 (Q9NRD5 1-356): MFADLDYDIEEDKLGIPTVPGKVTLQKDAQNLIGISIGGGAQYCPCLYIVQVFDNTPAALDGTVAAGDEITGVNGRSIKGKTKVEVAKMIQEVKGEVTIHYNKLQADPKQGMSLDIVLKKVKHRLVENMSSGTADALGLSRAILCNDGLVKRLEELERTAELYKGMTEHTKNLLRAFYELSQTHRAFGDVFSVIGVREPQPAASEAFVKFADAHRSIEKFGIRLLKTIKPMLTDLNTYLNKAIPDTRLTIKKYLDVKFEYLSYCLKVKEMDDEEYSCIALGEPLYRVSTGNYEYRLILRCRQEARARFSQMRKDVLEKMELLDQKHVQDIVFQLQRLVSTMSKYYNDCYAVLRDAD
T1 sequence (P78352 61-249): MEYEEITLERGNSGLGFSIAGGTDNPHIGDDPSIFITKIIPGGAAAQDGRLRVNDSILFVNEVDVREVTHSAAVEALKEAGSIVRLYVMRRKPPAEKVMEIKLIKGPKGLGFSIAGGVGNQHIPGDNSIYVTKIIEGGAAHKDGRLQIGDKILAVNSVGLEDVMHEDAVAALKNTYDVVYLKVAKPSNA
Experimental for PICK1: (§1) Fluorescence polarization (FP) and competition binding assays were used to determine PDZ binding affinities and selectivity of compounds as described in Alfonso et al.[20]. Briefly, a fixed concentration (5 nM) of Fluorescein isothiocyanate-labeled peptides comprising the C-terminal amino acids of GluA2 (875–883) and N-methyl-D-aspartate receptor subunit 2B (1474–1482) was used. Binding FP assays were carried out using increasing concentrations of recombinant full-length PICK1, postsynaptic density 95 (PSD95) PDZ 1–2, or Shank3 PDZ, and normalized by subtracting the tracer-only background.
Two recombinant PICK1 constructs were used in this study. […] A truncated, dimeric form of PICK1 lacking the last 59 residues was expressed in baculovirus and purified to homogeneity for use in the in vitro displacement assay. In general, both proteins were purified by Nickel chromatograpy followed by size exclusion chromatography.
Experimental for Shank3 PDZ: as §1

For the compound `C[C@H](NC(=O)C1(c2ccc(Br)cc2)CCN(C(=O)[C@@H]2CCCN2C(=O)OC(C)(C)C)CC1)C(=O)O` [1h], the IC50 (usually the concentration that inhibits the measured activity by half) at PICK1 (IC50, BIO424 as tracer) was 12100 nM and 12000 nM.

As to `O=C(O)[C@H](CC1CC1)NC(=O)C1(c2ccc(C(F)(F)F)cc2)CCN(c2cc(Cl)cc3cccnc23)CC1` [1z], the “exposure in the brain (brain penetration)” value in “PK properties in rats” is listed as “no exposure in the brain”. Also, in the series “PK properties in rats” (setting [5]), the AUC – broadly, concentration integrated over time – was found to be 2920 ng·h/mL and the Cmax (as a rule, the highest concentration seen after dosing) worked out at 1360 ng/mL. Besides, the “surface GluA2 levels relative to untreated neurons” value in series [1] (3 μM, 24 hours, cultured hippocampal neurons) is given as “increased”. For the same compound, the “total amount of GluA2 in the cytoplasm and on the cell surface” value in series [1] (inhibitor treatment, data not shown) is on record as “unchanged”. The “effect on Aβ42-induced increase in intracellular calcium concentration” value in series [2] was “attenuated”. Besides, the “selectivity for PICK1 over PSD95” value on PSD95 PDZ 1-2 is on record as “selectivity”. Further, the “selectivity for PICK1 over GRIP” value in the series with GRIP [3] is recorded as “selectivity”. Also, the IC50 on PICK1 (IC50 (potency)) is 69 nM. The “fold more potent than the unsubstituted quinoline” value at PICK1 was 67 fold.

Take `CC(C)(C)OC(=O)N1CCC[C@H]1C(=O)N1CCC(C(=O)NCC(=O)O)(c2ccc(Br)cc2)CC1` [1g]: the IC50 on PICK1 (IC50, BIO424 as tracer) was greater than 175000 nM.

At PICK1 (IC50, BIO424 as tracer), `CC(C)[C@H](NC(=O)C1(C2CCCCC2)CCN(C(=O)[C@@H]2CCCN2C(=O)OC(C)(C)C)CC1)C(=O)O` [1b] yielded an IC50 of 17400 nM.

`CC(C)(C)OC(=O)N1CCC[C@H]1C(=O)N1CCC(C(=O)N[C@@H](CC2CC2)C(=O)O)(c2ccc(Br)cc2)CC1` [1m]: on PICK1 (IC50, BIO424 as tracer), the IC50 is 718 nM.

Consider `CC(C)[C@H](NC(=O)C1(c2ccc(C(F)(F)F)cc2)CCN(C(=O)[C@@H]2CCCN2C(=O)OC(C)(C)C)CC1)C(=O)O` [1f], for which the IC50 at PICK1 (IC50, BIO424 as tracer) is 1560 nM and 1600 nM.

For `Cc1cc(N2CCC(C(=O)N[C@@H](CC3CC3)C(=O)O)(c3ccc(C(F)(F)F)cc3)CC2)c2ncccc2c1` [1v], the IC50 at PICK1 (IC50, BIO424 as tracer) worked out at 348 nM. The “fold more potent than the unsubstituted quinoline” value on PICK1 is on record as 10 fold.

Turning to `O=C(O)[C@H](CC1CC1)NC(=O)C1(c2ccc(Br)cc2)CCN(Cc2ccccc2C(F)(F)F)CC1` [1o], the “selectivity for PICK1 over Shank PDZ domain” value at Shank3 PDZ is listed as “selectivity”. Also, the “selectivity for PICK1 over GRIP” value in the series with GRIP [4] was “selectivity”. The same compound showed an IC50 at PICK1 (IC50, BIO424 as tracer) of 573 nM.

Consider `CC(C)(C)OC(=O)N1CCC[C@H]1C(=O)N1CCC(C(=O)N[C@@H](CC2CC2)C(=O)O)(c2ccc(C(F)(F)F)cc2)CC1` [1n], for which the IC50 on PICK1 (IC50 (potency)) stood at 130 nM.

In turn, `CC(C)(C)OC(=O)N1CCC[C@H]1C(=O)N1CCC(C(=O)N[C@H](C(=O)O)C2CCCC2)(c2ccc(Br)cc2)CC1` [1l] had an IC50 at PICK1 (IC50, BIO424 as tracer) of 815 nM.

Take `O=C(O)[C@H](CC1CC1)NC(=O)C1(c2ccc(C(F)(F)F)cc2)CCN(c2cccc3cccnc23)CC1` [1u]: the IC50 on PICK1 (IC50, BIO424 as tracer) was 4600 nM.

As for `COc1cc(N2CCC(C(=O)N[C@@H](CC3CC3)C(=O)O)(c3ccc(C(F)(F)F)cc3)CC2)c2ncccc2c1` [1ac], on PICK1 (IC50, BIO424 as tracer), the IC50 was 563 nM.

On to `CC(C)[C@H](NC(=O)C1(Cc2ccccc2)CCN(C(=O)[C@@H]2CCCN2C(=O)OC(C)(C)C)CC1)C(=O)O` [1d], for which, on PICK1 (IC50, BIO424 as tracer), the IC50 was determined as 20600 nM.

`CC(C)(C)OC(=O)N1CCC[C@H]1C(=O)N1CCC(C(=O)N[C@@H](Cc2c[nH]cn2)C(=O)O)(c2ccc(Br)cc2)CC1` [1k]: the IC50 on PICK1 (IC50, BIO424 as tracer) is greater than 175000 nM.

For the compound `CC(C)c1cc(N2CCC(C(=O)N[C@@H](CC3CC3)C(=O)O)(c3ccc(C(F)(F)F)cc3)CC2)c2ncccc2c1` [1x], the IC50 on PICK1 (IC50, BIO424 as tracer) came out at 508 nM.

`O=C(O)[C@H](CC1CC1)NC(=O)C1(c2ccc(C(F)(F)F)cc2)CCN(c2ccccc2)CC1` [1s] gave an IC50 at PICK1 (IC50, BIO424 as tracer) of 2040 nM.

`CCc1cc(N2CCC(C(=O)N[C@@H](CC3CC3)C(=O)O)(c3ccc(C(F)(F)F)cc3)CC2)c2ncccc2c1` [1w] registered an IC50 at PICK1 (IC50, BIO424 as tracer) of 269 nM.

In the case of `O=C(O)[C@H](CC1CC1)NC(=O)C1(c2ccc(C(F)(F)F)cc2)CCN(c2cc(F)cc3cccnc23)CC1` [1y], at PICK1 (IC50, BIO424 as tracer), the IC50 is 626 nM. This IC50 is about 2.3-fold higher than that of the compound before.

`CC(C)[C@H](NC(=O)C1(c2ccc(Br)cc2)CCN(C(=O)[C@@H]2CCCN2C(=O)OC(C)(C)C)CC1)C(=O)O` [1e] displayed an IC50 at PICK1 (IC50, BIO424 as tracer) of 4290 nM.

In turn, `O=C(O)[C@H](CC1CC1)NC(=O)C1(c2ccc(C(F)(F)F)cc2)CCN(c2cc(C(F)(F)F)cc3cccnc23)CC1` [1ab] returned an IC50 at PICK1 (IC50, BIO424 as tracer) of 104 nM.

Turning to `O=C(O)[C@H](CC1CC1)NC(=O)C1(c2ccc(C(F)(F)F)cc2)CCN(c2cccc3ccccc23)CC1` [1t], the IC50 at PICK1 (IC50, BIO424 as tracer) worked out at 8470 nM.

`CC(C)[C@H](NC(=O)C1(c2ccccc2)CCN(C(=O)[C@@H]2CCCN2C(=O)OC(C)(C)C)CC1)C(=O)O` [1a]: the IC50 at PICK1 (IC50, BIO424 as tracer) was 19000 nM and 18900 nM.

The compound `CC(C)[C@H](NC(=O)C1(N2CCOCC2)CCN(C(=O)[C@@H]2CCCN2C(=O)OC(C)(C)C)CC1)C(=O)O` [1c] gave an IC50 at PICK1 (IC50, BIO424 as tracer) of roughly 175000 nM.

For `O=C(O)[C@H](CC1CC1)NC(=O)C1(c2ccc(C(F)(F)F)cc2)CCN(c2cc(OC(F)(F)F)cc3cccnc23)CC1` [1ad], the IC50 at PICK1 (IC50, BIO424 as tracer) was determined as 2300 nM.

For `O=C(O)[C@H](CC1CC1)NC(=O)C1(c2ccc(C(F)(F)F)cc2)CCN(c2cc(Br)cc3cccnc23)CC1` [1aa], the IC50 on PICK1 (IC50, BIO424 as tracer) was 75 nM.

In the case of `CC(C)(C)OC(=O)N1CCC[C@H]1C(=O)N1CCC(C(=O)NC(C)(C)C(=O)O)(c2ccc(Br)cc2)CC1` [1i], at PICK1 (IC50, BIO424 as tracer), the IC50 was greater than 175000 nM.

On to `O=C(O)[C@H](CC1CC1)NC(=O)C1(c2ccc(Br)cc2)CCN(Cc2ccc(C(F)(F)F)cc2)CC1` [1q], for which the IC50 at PICK1 (IC50, BIO424 as tracer) was 5930 nM.

As to `CC(C)(C)OC(=O)N1CCC[C@H]1C(=O)N1CCC(C(=O)N[C@@H](Cc2c[nH]c3ccccc23)C(=O)O)(c2ccc(Br)cc2)CC1` [1j], the IC50 at PICK1 (IC50, BIO424 as tracer) is greater than 175000 nM.

At PICK1 (IC50, BIO424 as tracer), `O=C(O)[C@H](CC1CC1)NC(=O)C1(c2ccc(Br)cc2)CCN(Cc2cccc(C(F)(F)F)c2)CC1` [1p] yielded a half-inhibitory concentration (IC50) of 2560 nM.
